Measurements taken from patent publication US5945549A, “Production of aqueous solutions of mixtures of formyltertrahydrofuran and hydrates thereof” (Eastman Chemical Company, priority 1999, dated 1999).
Read-outs that look alike come from different tables or passages of the source. Blank lines part the entries; values can stand above or below the compound they belong to.

What was measured:
[1] = type: physicochemical
Experimental: Partition coefficients also were determined by the same procedures for using the inert organic solvents 1-decanol (alcohol), isobutyl isobutyrate (ester, IBIB), 2,2,4-trimethyl-1,3-pentanediol monoisobutyrate (alcohol ester, TMPD-MIB), and dimethyl terphthalate (aromatic diester, DMT).

[2] = Solvent partition coefficient into water, with and without 3-FTHF co-solvent (Examples 45-56); type: physicochemical; settings: no co-solvent; H2O:(S + CS) 1:1
Description: These examples include materials which could act as solvents for the reaction and extraction.

[3] = Hydration equilibrium 3-FTHF/3-DHMTHF in water by proton nuclear magnetic resonance; type: physicochemical
Experimental: The maximum density shown in Table I corresponds approximately to the composition for 3-DHMTHF. […] Confirmation of the formation of 3-DHMTHF when 3-FTHF is added to water comes from proton Nuclear Magnetic Resonance spectroscopy. At room temperature, 50 weight percent solutions of aqueous 3-FTHF show two components: 79 mole percent 3-DHMTHF and only 21 mole percent 3-FTHF. Furthermore, changing the water concentration either directly or by using water miscible solvents reversibly changes the 3-DHMTHF:3-FTHF mole ratio indicating a rapidly established equilibrium between the two components as well as showing their relative stability. The relative amounts of 3-FTHF and 3-DHMTHF at varying water/3-FTHF concentrations as determined by proton nuclear magnetic resonance spectroscopy are shown in Table II wherein the values given for "Water", "3-FTHF" and "Solvent" are weight percentages based on the total weight of the 3 component composition and "Solvent" refers to CD3 COCD3 (NMR solvent).
In Table II the value given for the 3-FTHF component is the amount of 3-FTHF dissolved in the composition although in aqueous solution it exists both as 3-FTHF and 3-DHMTHF. Some of the 3-FTHF in the water solution also exists in the form of an acetal, e.g., depending on the concentration, up to about 70 mole percent (at very high concentrations) but usually only about 0.5 mole percent (at 50 weight percent concentration) of the 3-FTHF is in the form of an acetal having the structure: [drawing 4] wherein n is 2.

[4] = 3-FTHF solubility in solvent; type: physicochemical
Experimental: Partition coefficients also were determined by the same procedures for using the inert organic solvents 1-decanol (alcohol), isobutyl isobutyrate (ester, IBIB), 2,2,4-trimethyl-1,3-pentanediol monoisobutyrate (alcohol ester, TMPD-MIB), and dimethyl terphthalate (aromatic diester, DMT). The 3-FTHF:Solvent:Water volume ratios used in each of Examples 37-44 was 3:3:4. The partition coefficients are shown in Table VI wherein the values specified for 3-FTHF Solubility in Solvent are weight percentages, the values given for Temp are the temperatures (° C.), K3FTHF is the partition coefficient for 3-FTHF determined as described above and Ksolvent is the coefficient for the solvent utilized in each example determined form its solubility in the two phase and affected by the presence of the 3-FTHF substrate.

[5] = Share of diol, hemiacetal or acetal in aqueous solution; type: physicochemical
[6] = Partition coefficient of triphenylphosphine between toluene and water; type: physicochemical
Description: Rhodium, the other component of the catalyst, exists primarily as rhodium (I) hydrido carbonyl bis (triphenylphosphine) complex and accompanies the triphenylphosphine with a similar partition coefficient.

[7] = 3-FTHF:Solvent:Water 3:3:4 by volume, 24.1-25.7 °C
[8] = 50 weight percent aqueous 3-FTHF, room temperature
[9] = Water 6.1, 3-FTHF 6.3, CD3COCD3 87.6 wt %
[10] = Water 10.4, 3-FTHF 13.8, CD3COCD3 75.8 wt %
[11] = Water 15.2, 3-FTHF 20.2, CD3COCD3 64.6 wt %
[12] = Water 19.8, 3-FTHF 26.2, CD3COCD3 54.0 wt %
[13] = Water 24.1, 3-FTHF 32.0, CD3COCD3 43.9 wt %
[14] = Water 31.4, 3-FTHF 43.5, CD3COCD3 25.1 wt %
[15] = Water 36.9, 3-FTHF 46.6, CD3COCD3 16.5 wt %
[16] = Water 37.6, 3-FTHF 54.4, CD3COCD3 8.0 wt %
[17] = Water 45.0, 3-FTHF 55.0, CD3COCD3 0.0 wt %

Compound: CC(C)CC(C)(C)C [Isooctane, isooctane, reference compound]
KSolvent partition coefficient [1]: 0.00746

Compound: COC(=O)c1ccccc1C(=O)OC [DMP, dimethyl phthalate]
Solvent Partition Coefficient [2]: 0.00731

Compound: CC(C)c1cccc(C(C)C)c1 [DIPB, 1,3-diisopropylbenzene, reference compound]
KSolvent partition coefficient [1, 7]: 0.01904

Compound: Cc1ccc(C)cc1 [p-Xylene, p-xylene, reference compound]
KSolvent partition coefficient [1, 7]: 0.0074 | Solvent Partition Coefficient [2]: 0.00015

Compound: c1ccc(P(c2ccccc2)c2ccccc2)cc1 [triphenylphosphine]
effective partition coefficient of triphenylphosphine ([6]; 10 percent emulsion): 0.095 | partition coefficient of triphenylphosphine between toluene and water ([6]; Example 57, 50:1 triphenylphosphine:toluene, 1:1 water:triphenylphosphine+toluene by volume): 0.00433 | partition coefficient of triphenylphosphine ([6]; aqueous/toluene, room temperature, 50 weight percent water in aqueous phase): 0.0043

Further lines, results first:

KSolvent partition coefficient [1]: 0.00661
Compound: CCCCCCCCCC [n-Decane, decane, reference compound]

KSolvent partition coefficient [1]: 0.00481
Compound: 2,2,4-trimethyl-1,3-pentanediol monoisobutyrate [TMPD-MIB, reference compound]

KSolvent partition coefficient [1]: 0.02526
Compound: COC(=O)c1ccc(C(=O)OC)cc1 [DMT, dimethyl terphthalate, reference compound]

Mole Percent in equilibrium [3, 8]: 79 mole percent | Mole Percent in equilibrium [3, 9]: 21.6 Mole Percent | Mole Percent in equilibrium [3, 10]: 31.2 Mole Percent | Mole Percent in equilibrium [3, 11]: 41.9 Mole Percent | Mole Percent in equilibrium [3, 12]: 48.9 Mole Percent | Mole Percent in equilibrium [3, 13]: 56.6 Mole Percent | Mole Percent in equilibrium [3, 14]: 66.7 Mole Percent | Mole Percent in equilibrium [3, 15]: 71.2 Mole Percent | Mole Percent in equilibrium [3, 16]: 75.1 Mole Percent | Mole Percent in equilibrium [3, 17]: 79.0 Mole Percent
Compound: OC(O)C1CCOC1 (stereo not shown) [3-DHMTHF, 3-Dihydroxymethyltetrahydrofuran]

3-FTHF Solubility in Solvent ([4]; in 1-decanol): 100 weight percentages | 3-FTHF Solubility in Solvent ([4]; in DIPB): 100 weight percentages | 3-FTHF Solubility in Solvent ([4]; in DMT): 100 weight percentages | 3-FTHF Solubility in Solvent ([4]; in IBIB): 100 weight percentages | 3-FTHF Solubility in Solvent ([4]; in TMPD-MIB): 100 weight percentages | 3-FTHF Solubility in Solvent ([4]; in isooctane): 2.36 weight percentages | 3-FTHF Solubility in Solvent ([4]; in n-decane): 0.93 weight percentages | 3-FTHF Solubility in Solvent ([4]; in p-xylene): 100 weight percentages | 3-FTHF Solubility in Solvent ([4]; in toluene): 100 weight percentages | Mole Percent in equilibrium [3, 8]: 21 mole percent | Mole Percent in equilibrium [3, 9]: 78.4 Mole Percent | Mole Percent in equilibrium [3, 10]: 68.8 Mole Percent | Mole Percent in equilibrium [3, 11]: 58.1 Mole Percent | Mole Percent in equilibrium [3, 12]: 51.1 Mole Percent | Mole Percent in equilibrium [3, 13]: 43.4 Mole Percent | Mole Percent in equilibrium [3, 14]: 33.3 Mole Percent | Mole Percent in equilibrium [3, 15]: 28.8 Mole Percent | Mole Percent in equilibrium [3, 16]: 24.9 Mole Percent | Mole Percent in equilibrium [3, 17]: 21.0 Mole Percent | 3-FTHF in the form of an acetal (n is 2) ([5]; at 50 weight percent concentration): about 0.5 mole percent | 3-FTHF in the form of an acetal (n is 2) ([5]; at very high concentrations): up to 70 mole percent
Compound: O=CC1CCOC1 (stereo not shown) [3-FTHF, 3-formyltetrahydrofuran]

KSolvent partition coefficient [1, 7]: 0.00772 | Solvent Partition Coefficient [2]: 0.00116
Compound: CC(C)COC(=O)C(C)C [IBIB, isobutyl isobutyrate, reference compound]

KSolvent partition coefficient [1, 7]: 0.01695 | Solvent Partition Coefficient [2]: 0.00028
Compound: CCCCCCCCCCO [1-Decanol, 1-decanol, reference compound]
